In patent publication US20260250269A1, “APOPTOSIS INHIBITOR SALTS FOR CANCER” (priority 2022, published 2026):
Several values for one entry are separate records, joined by “and”; a condition that tells them apart may be missing. Identical values can stand only once. Like-named read-outs stand apart in the source and are kept apart here.

Assays:
[1] = Competitive equilibration experiments of Form A and Form B; format: physicochemical
Description: About 5 mg of Form A and about 5 mg of the mixture of Form A and Form B were added to 0.2 mL saturated solutions in following solvents: water, ethanol, acetone, acetonitrile, ethyl acetate, and pyridine/water (1/9 v/v). Obtained suspensions were stirred at 25° C. and 50° C., respectively, for a duration between 4 days to 4 weeks. Solid parts (wet cakes) were isolated by centrifugation filtration and investigated by XRPD.

[2] = for Solubility / Solubility (in words): 37° C.; for Solubility: 24 hours; for Solubility (in words): PBS buffer
[3] = Solid-state thermal stability of the pamoate salt Form B; format: physicochemical
Description: Form B was placed at 25° C./92% relative humidity (RH) in an open container, at 40° C./75% RH in an open container, and at 60° C. in a tight container for 1 week. Samples were characterized by XRPD and HPLC and inspected for appearance including color change.

[4] = Compression, dry grinding and wet granulation simulation experiments; format: physicochemical
Description: Compression: About 50 mg of Form B was compressed for 5 minutes under 10 MPa with a hydraulic press. Potential form change and degree of crystallinity were evaluated by XRPD.
Dry Grinding: About 20 mg of Form B was ground manually with a mortar and a pestle for 5 min. Potential form change and degree of crystallinity were evaluated by XRPD.
Wet Granulation: Water or ethanol was added drop wise to about 20 mg of Form B until the sample was wetted sufficiently. Wet sample was ground gently with a mortar and a pestle for 3 min. Post granulation sample was dried under ambient condition for 10 min. Potential form change and degree of crystallinity were evaluated by XRPD.

[5] = Hygroscopicity of Form B by dynamic vapor sorption (DVS); format: physicochemical
Description: Water sorption and desorption behavior of Form B was investigated by dynamic vapor sorption (DVS) at 25° C. with a cycle of 40-0-95-0-40% RH, dm/dt 0.002, minimum equilibration time of 60 min and maximum equilibration time 360 min.

[6] = Solid form conversion on drying, heating or storage (XRPD); format: physicochemical
[7] = after solubility test in mouse plasma
[8] = after solubility test in pH 7.4 PBS buffer
[9] = 25° C./92% RH open container, 1 week
[10] = 40° C./75% RH open container, 1 week
[11] = 60° C. in a tight container, 1 week
[12] = relative humidity 0.0 at 25° C.
[13] = relative humidity 10.0 at 25° C.
[14] = relative humidity 20.0 at 25° C.
[15] = relative humidity 30.0 at 25° C.
[16] = relative humidity 40.0 at 25° C.
[17] = relative humidity 50.0 at 25° C.
[18] = relative humidity 60.0 at 25° C.
[19] = relative humidity 70.0 at 25° C.
[20] = relative humidity 80.0 at 25° C.
[21] = relative humidity 90.0 at 25° C.
[22] = relative humidity 95.0 at 25° C.

Structure (SMILES): COCCn1c2c([n+](Cc3cnccn3)c1C)C(=O)c1ccccc1C2=O.COCCn1c2c([n+](Cc3cnccn3)c1C)C(=O)c1ccccc1C2=O.O=C([O-])c1cc2ccccc2c(Cc2c(O)c(C(=O)[O-])cc3ccccc23)c1O [Form A]
- Solid form conversion in competitive experiments ([1]; in ethanol, acetone, ACN and pyridine/water): converted to Form B
- Form change by XRPD after solubility test [2]: no form change
- Water solubility (in words) [2]: extremely low
- XRPD of residual solids [2, 7]: Form A
- XRPD of residual solids [2, 8]: Form A
- XRPD of residual solids ([2]; after solubility test in water): Form A
- Solubility ([2]; mouse plasma): 436 µg/mL and 403 µg/mL
- Solubility ([2]; pH 7.4, PBS buffer): 84 µg/mL and 86 µg/mL
- Solubility ([2]; water): 12 µg/mL and 13 µg/mL
- Solubility (in words) ([2]; water, mouse plasma): comparable low solubility

Structure (SMILES): COCCn1c2c([n+](Cc3cnccn3)c1C)C(=O)c1ccccc1C2=O.COCCn1c2c([n+](Cc3cnccn3)c1C)C(=O)c1ccccc1C2=O.O=C([O-])c1cc2ccccc2c(Cc2c(O)c(C(=O)[O-])cc3ccccc23)c1O [Form B]
- Relative stability among solid forms ([1]; among Forms A-J): most stable form among Forms A-J
- Appearance (Color) change [3, 9]: None
- Purity by HPLC [3, 9]: 99.4%
- XRPD [3, 9]: Form B
- Physical and chemical stability ([3]; 25° C./92% RH, 40° C./75% RH, 60° C., 1 week): physically stable and chemically stable
- Appearance (Color) change [3, 10]: None
- Purity by HPLC [3, 10]: 99.5%
- XRPD [3, 10]: Form B
- Appearance (Color) change [3, 11]: none
- Purity by HPLC [3, 11]: 99.4%
- XRPD [3, 11]: Form B
- Appearance (Color) change ([3]; Initial): None
- Purity by HPLC ([3]; Initial): 99.3%
- XRPD ([3]; Initial): Form B
- Form change and crystallinity by XRPD after compression ([4]; 5 minutes under 10 MPa, hydraulic press): no form change and no obvious crystallinity decrease
- Form change and crystallinity by XRPD after dry grinding ([4]; ground manually with mortar and pestle for 5 min): no form change and slight crystallinity decrease
- Form change and crystallinity by XRPD after wet granulation ([4]; water or ethanol, ground 3 min, dried 10 min): no form change and no obvious crystallinity decrease
- Form change by XRPD after solubility test [2]: no form change
- XRPD of residual solids [2, 7]: Form B
- XRPD of residual solids [2, 8]: Form B
- XRPD of residual solids ([2]; after solubility test in water): Form B
- Solubility ([2]; mouse plasma): 342 µg/mL and 344 µg/mL
- Solubility ([2]; pH 7.4, PBS buffer): 78 µg/mL
- Solubility ([2]; water): 14 µg/mL and 13 µg/mL
- Solubility (in words) ([2]; water, mouse plasma): comparable low solubility
- Solid form by XRPD after the DVS test [5]: still Form B
- Hygroscopicity (in words) ([5]; DVS at 25° C.): slightly hygroscopic
- 1st desorption weight % change [5, 12]: 0.02 weight %
- 1st sorption weight % change [5, 12]: 0.02 weight %
- 2nd desorption weight % change [5, 12]: 0.00 weight %
- 2nd sorption weight % change [5, 12]: 0.00 weight %
- 1st desorption weight % change [5, 13]: 0.06 weight %
- 1st sorption weight % change [5, 13]: 0.06 weight %
- 2nd desorption weight % change [5, 13]: 0.05 weight %
- 2nd sorption weight % change [5, 13]: 0.04 weight %
- 1st desorption weight % change [5, 14]: 0.09 weight %
- 1st sorption weight % change [5, 14]: 0.08 weight %
- 2nd desorption weight % change [5, 14]: 0.08 weight %
- 2nd sorption weight % change [5, 14]: 0.06 weight %
- 1st desorption weight % change [5, 15]: 0.13 weight %
- 1st sorption weight % change [5, 15]: 0.11 weight %
- 2nd desorption weight % change [5, 15]: 0.10 weight %
- 2nd sorption weight % change [5, 15]: 0.08 weight %
- 1st desorption weight % change [5, 16]: 0.16 weight %
- 1st sorption weight % change [5, 16]: 0.12 weight %
- 2nd desorption weight % change [5, 16]: 0.13 weight %
- 2nd sorption weight % change [5, 16]: 0.10 weight %
- 1st sorption weight % change [5, 17]: 0.15 weight %
- 2nd desorption weight % change [5, 17]: 0.16 weight %
- 1st sorption weight % change [5, 18]: 0.17 weight %
- 2nd desorption weight % change [5, 18]: 0.18 weight %
- 1st sorption weight % change [5, 19]: 0.20 weight %
- 2nd desorption weight % change [5, 19]: 0.21 weight %
- 1st sorption weight % change [5, 20]: 0.23 weight %
- 2nd desorption weight % change [5, 20]: 0.25 weight %
- 1st sorption weight % change [5, 21]: 0.35 weight %
- 2nd desorption weight % change [5, 21]: 0.38 weight %
- 1st sorption weight % change [5, 22]: 0.64 weight %
- 2nd desorption weight % change [5, 22]: 0.64 weight %
- Water absorbed ([5]; up to 95% RH at 25° C.): about 0.64%

Structure (SMILES): CCO.COCCn1c2c([n+](Cc3cnccn3)c1C)C(=O)c1ccccc1C2=O.COCCn1c2c([n+](Cc3cnccn3)c1C)C(=O)c1ccccc1C2=O.O=C([O-])c1cc2ccccc2c(Cc2c(O)c(C(=O)[O-])cc3ccccc23)c1O [Form C]
- Solid form conversion ([6]; exposure to ambient condition about 2 hours and drying at 25° C. under vacuum about 2 hours): converted to a mixture of Form A and Form B

Structure (SMILES): CC(=O)N(C)C.COCCn1c2c([n+](Cc3cnccn3)c1C)C(=O)c1ccccc1C2=O.COCCn1c2c([n+](Cc3cnccn3)c1C)C(=O)c1ccccc1C2=O.O=C([O-])c1cc2ccccc2c(Cc2c(O)c(C(=O)[O-])cc3ccccc23)c1O [Form G]
- Solid form obtained on storage ([6]; storing at 25° C. for about 1 day): Form H

Structure (SMILES): CC(=O)N(C)C.COCCn1c2c([n+](Cc3cnccn3)c1C)C(=O)c1ccccc1C2=O.COCCn1c2c([n+](Cc3cnccn3)c1C)C(=O)c1ccccc1C2=O.O=C([O-])c1cc2ccccc2c(Cc2c(O)c(C(=O)[O-])cc3ccccc23)c1O [Form H]
- Solid form conversion ([6]; after heating to 170° C.): converted to a mixture of Form A and Form B
